Source: patent US20230159546A1, “NOVEL SPIROPYRROLIDINE DERIVED ANTIVIRAL AGENTS” (Enanta Pharmaceuticals, Inc., priority 2021, published 2023)
pIC50: −log10 of the molar value.

target: SARS-CoV-2 3CL-protease (Severe acute respiratory syndrome coronavirus 2, UniProt P0DTD1); assay: SARS-CoV-2 3C-like (3CL) protease fluorescence assay (FRET); assay type: biochemical; conditions: not given

**Q.** With `CCOC(=O)N1C[C@]2(C[C@H]1C#N)C(=O)Nc1ccccc12` [Example 67] as the compound, how does the pIC50 read?
**A.** The pIC50 was less than 6.00.

**Q.** `N#C[C@@H]1C[C@@]2(CN1C(=O)Oc1ccccc1)C(=O)Nc1ccccc12` [Example 71] was tested. Which pIC50 did it give?
**A.** The pIC50 was less than 6.00.

same assay, conditions: recombinant SARS-CoV-2 3CL-protease 10 nM, 30 min preincubation at RT, duplicate; read-out: FRET IC50

**Q.** With `N#C[C@@H]1C[C@@]2(CN1C(=O)c1cc3ccccc3[nH]1)C(=O)Nc1ccccc12` [Example 54] as the compound, how does the pIC50 read?
**A.** The pIC50 was less than 6.00.

**Q.** With `N#C[C@@H]1C[C@@]2(CN1S(=O)(=O)c1ccccc1)C(=O)Nc1ccccc12` [Example 55] as the compound, how does the pIC50 read?
**A.** Its pIC50 is less than 6.00.

**Q.** How did the pIC50 turn out when `N#C[C@@H]1C[C@@]2(CN1S(=O)(=O)c1ccc(F)cc1)C(=O)Nc1ccccc12` [Example 56] was run?
**A.** The pIC50 was less than 6.00.

**Q.** How did the pIC50 turn out when `CC(C)NS(=O)(=O)N1C[C@]2(C[C@H]1C#N)C(=O)Nc1ccccc12` [Example 57] was run?
**A.** Its pIC50 is less than 6.00.

**Q.** `N#C[C@@H]1C[C@@]2(CN1S(=O)(=O)NC1CC1)C(=O)Nc1ccccc12` [Example 58] was tested. Which pIC50 did it give?
**A.** The pIC50 was less than 6.00.

**Q.** `N#C[C@@H]1C[C@@]2(CN1S(=O)(=O)NC1CCC1)C(=O)Nc1ccccc12` [Example 59] was tested. Which pIC50 did it give?
**A.** The pIC50 was less than 6.00.

**Q.** `N#C[C@@H]1C[C@@]2(CN1S(=O)(=O)NC1CCCC1)C(=O)Nc1ccccc12` [Example 60] was tested. Which pIC50 did it give?
**A.** The pIC50 was less than 6.00.

**Q.** `N#C[C@@H]1C[C@@]2(CN1S(=O)(=O)NC1CCCCC1)C(=O)Nc1ccccc12` [Example 61] was tested. Which pIC50 did it give?
**A.** Its pIC50 is less than 6.00.

**Q.** With `N#C[C@@H]1C[C@@]2(CN1S(=O)(=O)Nc1ccc(F)cc1)C(=O)Nc1ccccc12` [Example 62] as the compound, how does the pIC50 read?
**A.** The pIC50 was less than 6.00.

**Q.** `N#C[C@@H]1C[C@@]2(CN1S(=O)(=O)NCc1nccs1)C(=O)Nc1ccccc12` [Example 63] was tested. Which pIC50 did it give?
**A.** Its pIC50 is less than 6.00.

**Q.** `CC(C)CN1C[C@]2(C[C@H]1C#N)C(=O)Nc1ccccc12` [Example 64] was tested. Which pIC50 did it give?
**A.** Its pIC50 is less than 6.00.

**Q.** With `CC(C)CN1C[C@]2(C[C@@H]1C#N)C(=O)Nc1ccccc12` [Example 65] as the compound, how does the pIC50 read?
**A.** The pIC50 was less than 6.00.

**Q.** With `N#C[C@@H]1C[C@@]2(CN1CC1CC1)C(=O)Nc1ccccc12` [Example 66] as the compound, how does the pIC50 read?
**A.** The pIC50 was less than 6.00.

**Q.** How did the pIC50 turn out when `CC(C)OC(=O)N1C[C@]2(C[C@H]1C#N)C(=O)Nc1ccccc12` [Example 68] was run?
**A.** Its pIC50 is less than 6.00.

**Q.** How did the pIC50 turn out when `N#C[C@@H]1C[C@@]2(CN1C(=O)OC1CC1)C(=O)Nc1ccccc12` [Example 69] was run?
**A.** Its pIC50 is less than 6.00.

**Q.** With `N#C[C@@H]1C[C@@]2(CN1C(=O)OC1CCCC1)C(=O)Nc1ccccc12` [Example 70] as the compound, how does the pIC50 read?
**A.** The pIC50 was less than 6.00.

**Q.** How did the pIC50 turn out when `N#C[C@@H]1C[C@@]2(CN1C(=O)OCc1ccccc1)C(=O)Nc1ccccc12` [Example 72] was run?
**A.** Its pIC50 is 6.00 to 7.00.

**Q.** How did the pIC50 turn out when `N#C[C@@H]1C[C@@]2(CN1C(=O)C(=O)Nc1ccccc1)C(=O)Nc1ccccc12` [Example 73] was run?
**A.** The pIC50 was less than 6.00.

**Q.** With `CC(C)(C(=O)NC1CCCCC1)C(=O)N1C[C@]2(C[C@H]1C#N)C(=O)Nc1ccccc12` [Example 74] as the compound, how does the pIC50 read?
**A.** Its pIC50 is less than 6.00.

**Q.** `N#C[C@@H]1C[C@@]2(CN1C(=O)C1(C(=O)Nc3ccccc3)CC1)C(=O)Nc1ccccc12` [Example 75] was tested. Which pIC50 did it give?
**A.** Its pIC50 is less than 6.00.

**Q.** With `N#C[C@@H]1C[C@@]2(CN1S(=O)(=O)Nc1ccc3cccnc3c1)C(=O)Nc1ccccc12` [Example 76] as the compound, how does the pIC50 read?
**A.** The pIC50 was less than 6.00.

**Q.** `N#C[C@@H]1C[C@@]2(CN1C(=O)OC1CCCCC1)C(=O)Nc1ccccc12` [Example 77] was tested. Which pIC50 did it give?
**A.** Its pIC50 is less than 6.00.

**Q.** With `N#C[C@@H]1C[C@@]2(CN1C(=O)C(=O)NC1CC1)C(=O)Nc1ccccc12` [Example 78] as the compound, how does the pIC50 read?
**A.** Its pIC50 is less than 6.00.

**Q.** `N#C[C@@H]1C[C@@]2(CN1C(=O)C(=O)NC1CCCCC1)C(=O)Nc1ccccc12` [Example 79] was tested. Which pIC50 did it give?
**A.** Its pIC50 is 6.00 to 7.00.

**Q.** `N#C[C@@H]1C[C@@]2(CN1C(=O)C(=O)NCc1ccccc1)C(=O)Nc1ccccc12` [Example 80] was tested. Which pIC50 did it give?
**A.** The pIC50 was 6.00 to 7.00.

**Q.** `N#C[C@@H]1C[C@@]2(CN1C(=O)C(=O)NCc1nccs1)C(=O)Nc1ccccc12` [Example 81] was tested. Which pIC50 did it give?
**A.** Its pIC50 is less than 6.00.

**Q.** How did the pIC50 turn out when `CC(C)NC(=O)C(C)(C)C(=O)N1C[C@]2(C[C@H]1C#N)C(=O)Nc1ccccc12` [Example 82] was run?
**A.** Its pIC50 is less than 6.00.

**Q.** `CC(C)(C(=O)NC1CC1)C(=O)N1C[C@]2(C[C@H]1C#N)C(=O)Nc1ccccc12` [Example 83] was tested. Which pIC50 did it give?
**A.** The pIC50 was less than 6.00.

**Q.** With `CC(C)(C(=O)Nc1ccccc1)C(=O)N1C[C@]2(C[C@H]1C#N)C(=O)Nc1ccccc12` [Example 84] as the compound, how does the pIC50 read?
**A.** The pIC50 was less than 6.00.

**Q.** With `N#C[C@@H]1C[C@@]2(CN1S(=O)(=O)Nc1ccccc1)C(=O)Nc1ccccc12` [Example 85] as the compound, how does the pIC50 read?
**A.** The pIC50 was less than 6.00.

**Q.** `N#C[C@@H]1C[C@@]2(CN1C(=O)OCc1nccs1)C(=O)Nc1ccccc12` [Example 86] was tested. Which pIC50 did it give?
**A.** Its pIC50 is less than 6.00.
